Results: PMC11653428, “5‐methyl‐2‐carboxamidepyrrole‐based novel dual mPGES‐1/sEH inhibitors as promising anticancer candidates” (Archiv Der Pharmazie, 2024)
Like-named read-outs stand apart in the source and are kept apart here.

Columns and labels:
human recombinant sEH = target: T1, human recombinant sEH (Homo sapiens, UniProt P34913); assay: Cell-free sEH activity assay (PHOME fluorescence, inhibitor screening kit); assay type: biochemical; conditions: for remaining activity at 10 µM: compound at 10 μM, percentage of vehicle control (DMSO) = 100%, n = 3, read-out: Residual activity of sEH, mean ± SD (%); for IC50: threefold dilutions from 30,000 to 1.52 nM, read-out: IC50 (µM), mean ± SD for sEH
T1 construct: purchased 10011671
T1 sequence (P34913 1-555): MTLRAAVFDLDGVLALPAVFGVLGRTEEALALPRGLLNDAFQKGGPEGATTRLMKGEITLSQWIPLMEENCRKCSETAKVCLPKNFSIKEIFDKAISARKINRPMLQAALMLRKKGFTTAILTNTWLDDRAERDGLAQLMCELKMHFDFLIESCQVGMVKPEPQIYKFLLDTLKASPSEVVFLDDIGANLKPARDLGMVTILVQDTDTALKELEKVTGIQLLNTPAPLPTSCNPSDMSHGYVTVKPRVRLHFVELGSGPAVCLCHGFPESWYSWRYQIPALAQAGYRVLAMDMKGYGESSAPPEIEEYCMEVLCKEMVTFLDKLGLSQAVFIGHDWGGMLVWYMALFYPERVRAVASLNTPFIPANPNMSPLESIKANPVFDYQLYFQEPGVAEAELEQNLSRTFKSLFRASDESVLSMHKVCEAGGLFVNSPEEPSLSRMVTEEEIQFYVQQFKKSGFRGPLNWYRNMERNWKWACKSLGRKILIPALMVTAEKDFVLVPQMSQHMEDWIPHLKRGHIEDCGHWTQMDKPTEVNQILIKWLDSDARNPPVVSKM
Source text: When the epoxide moiety of PHOME is hydrolyzed by the epoxide hydrolase, an intramolecular cyclization occurs, which results in the release of a cyanohydrin under basic conditions. The cyanohydrin quickly decomposes into cyanide ion and the highly fluorescent 6‐Methoxy‐2‐naphthaldehyde, which can be analyzed. The signal was detected (λex 330 nm, λem 465 nm) on an EnSpire™ Multimode Plate Reader (PerkinElmer).
The reaction was initiated by adding a small amount of a no-fluorescent substrate called PHOME. When sEH hydrolyzes PHOME, it triggers a chemical reaction that ultimately produces a fluorescent compound. The fluorescence emitted by this compound was measured using a plate reader, which allowed the researchers to analyze the enzyme activity and determine the effectiveness of the test compounds in inhibiting sEH.

HaCaT cells = assay: Cell survival index (MTT assay and cell count) in HaCaT keratinocytes; assay type: cell-based, human; conditions: 48 h of incubation, cell survival index, n = 24, healthy control cells, read-out: IC50 ± SD (µM) HaCat
Description: HaCaT cells, human immortalized keratinocytes (kindly provided by Dr. Valeria Cicatiello at Italian National Research Council (CNR), Institute of Genetics and Biophysics), were maintained in a humidified 5% CO2 atmosphere at 37°C and grown in DMEM (Invitrogen) supplemented with 10% fetal bovine serum (FBS, Cambrex), L‐glutamine (2 mM), penicillin (100 units/mL, Sigma‐Aldrich), and streptomycin (100 μg/mL). Cells were seeded at a density between 2 and 4 × 10^4 cells/cm^2 and cultured to about 80%–90% confluence.^[ [66] ^] HaCaT cells provide ideal in vitro cell systems to study biocompatibility and toxicological cellular responses.
(§1) Bioactivity and cell responses to in vitro treatment with 1f, 2b, 2c, and 2d compounds were investigated through the estimation of a “cell survival index,” arising from the combination of cell viability evaluation with cell counting. The cell survival index is calculated as the arithmetic mean between the percentage values derived from the 3‐(4,5‐dimethyl‐2‐thiazolyl) 2,5‐diphenyl‐2‐H‐tetrazolium bromide (MTT) assay and the automated cell count.^[ [67] ^] HCT‐116 and HaCaT were inoculated in 96‐microwell culture plates at a density of 10^4 cells/well and allowed to grow for 24 h. Subsequently, the culture medium was exchanged with fresh medium, and cells were exposed to different concentrations (0→50 µM) of compounds 1f, 2b−2d under investigation for an additional 48 h. After the treatments, the medium was removed, and the cells were incubated with 20 μL/well of an MTT solution (5 mg/mL MTT, Sigma) for 1 h in a humidified 5% CO2 incubator at 37°C. The incubation was stopped by removing the MTT solution and by adding 100 μL/well of DMSO to solubilize the obtained formazan. Finally, the absorbance was monitored at 550 nm using a microplate reader (iMark microplate reader, Bio‐Rad). Cell number was determined by TC20 automated cell counter (Bio‐Rad), which uses disposable slides, TC20 trypan blue dye (0.4% trypan blue dye w/v in 0.81% sodium chloride and 0.06% potassium phosphate dibasic solution), and a CCD camera to count cells based on the analyses of captured images. The medium was removed, and the cells were collected. Ten microliters of cell suspension, mixed with 0.4% trypan blue solution at a 1:1 ratio, were loaded into the chambers of disposable slides. The results are expressed in terms of total cell count (cell number/mL). […] Total counts and live/dead ratio from random samples for each cell line were subjected to comparisons with manual hemocytometers in control experiments. […] Concentration‐effect curves were obtained with nonlinear regression using GraphPad Prism 8.0 curve‐fitting software.^[ [67] ^]
(§2) Experiments on HTC-116 and HaCat cell lines: The bioactivity and cellular responses to treatment 2d were evaluated by calculating a "cell survival index." This index combines results from cell viability tests (using the MTT assay) and cell counting. HCT-116 and HaCaT cells were grown in 96-well plates for 24 hours, after which they were treated with various concentrations of the compounds for an additional 48 hours. After treatment, cell viability was assessed by incubating the cells with MTT solution, which results in the formation of formazan crystals. These crystals were dissolved in DMSO, and the absorbance was measured to determine cell viability.

HCT-116 cells = assay: Cell survival index (MTT assay and cell count) in HCT-116 CRC cells; assay type: cell-based, human; conditions: 48 h of incubation, cell survival index, n = 24, read-out: IC50 ± SD (µM) HCT-116
Description: HCT‐116 cells (CCL‐247 ™), an epithelial‐like carcinoma cell line isolated from the colon of an adult with colon cancer, were purchased from ATCC and cultured in Roswell Park Memorial Institute (Invitrogen) supplemented with 10% fetal bovine serum (FBS, Cambrex), L‐glutamine (2 mM, Sigma), penicillin (100 units/mL, Sigma), and streptomycin (100 μg/mL, Sigma), and cultured in a humidified 5% carbon dioxide atmosphere at 37°C, according to ATCC recommendations.^[ [58] ^]
as §1, §2

mPGES-1 = target: T2, mPGES-1 (Homo sapiens, UniProt O14684); assay: Cell-free mPGES-1 activity assay (microsomes of IL-1β-stimulated A549 cells, PGE2 formation by RP-HPLC); assay type: biochemical; conditions: for Residual activity of mPGES-1, mean ± SD (%) / remaining activity at 10 µM: compound at 10 μM, percentage of vehicle control (DMSO) = 100%, n = 3; for Residual activity of mPGES-1, mean ± SD (%): 10 µM; for remaining activity at 10 µM: read-out: Residual activity of mPGES-1, mean ± SD (%); for IC50: cell-free, A549 microsomes, read-out: IC50 (µM), mean ± SD for mPGES-1
T2 construct: endogenous in cells; host or cells: A549 cells stimulated with IL-1β; microsomal fraction
T2 sequence (O14684 1-152): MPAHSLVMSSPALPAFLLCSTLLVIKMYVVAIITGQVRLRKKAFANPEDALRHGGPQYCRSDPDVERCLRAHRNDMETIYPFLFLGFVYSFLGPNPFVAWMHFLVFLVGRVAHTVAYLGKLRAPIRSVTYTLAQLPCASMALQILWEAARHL
Description: Compounds 1a–f and 2a–d were submitted to a cell‐free assay mPGES‐1^[ [52] ^] to validate the inhibitory activity predicted in silico.
Microsomes of A549 cells containing mPGES‐1 were used as enzyme sources. In brief, A549 cells were stimulated with interleukin‐1β (IL‐1β) (2 ng/mL) for 48 h, harvested, and sonicated. The lysate was first centrifugated at 10,000g (10 min), and then at 174,000g for (1 h) at 4°C. The pellet (microsomal fraction) was resuspended in 1 ml homogenization buffer (0.1 M potassium phosphate buffer, pH = 7.4, 1 mM phenylmethanesulfonyl fluoride, 60 µg/mL soybean trypsin inhibitor, 1 µg/mL leupeptin, 2.5 mM GSH, and 250 mM sucrose), the total protein concentration was determined, and microsomes were diluted in potassium phosphate buffer (0.1 M, pH 7.4) containing GSH (2.5 mM) and seeded in a 96‐well plate. […] After 1 min, the addition of 100 µL of a stop solution (40 mM FeCl3, 80 mM citric acid, and 10 µM 11β‐PGE2) blocked the reaction. PGE2 and 11β‐PGE2 were extracted by solid‐phase extraction, and PGE2 formation was quantified by RP‐HPLC.^[ [52] ^]
mPGES-1 activity assay: Microsomes from A549 cells, which contain the enzyme mPGES-1, were used in an experiment to study the production of PGE2. The A549 cells were first stimulated with IL-1β for 48 hours, then harvested and broken down by sonication. The resulting cell lysate was subjected to two rounds of centrifugation to isolate the microsomal fraction. The microsomes were diluted and placed in a 96-well plate, where they were preincubated with various compounds or a control solution. The production of PGE2 was triggered by adding a substrate, and the reaction was stopped after one minute. PGE2 was then extracted and quantified using HPLC.

mPGES-1 from A549 cells = test system: mPGES-1 from A549 cells; parameters: method as in earlier work; conditions: cited from earlier work
[1] = test system: human recombinant mPGES-1; parameters: method as in earlier work; conditions: cited from earlier work

| Structure (SMILES) | remaining activity at 10 µM (human recombinant sEH) [%] | remaining activity at 10 µM (mPGES-1) [%] | IC50 (HaCaT cells; Homo sapiens, HaCaT) [µM] | IC50 (human recombinant sEH) [µM] | IC50 (HCT-116 cells; Homo sapiens, HCT-116) [µM] | also measured |
| --- | --- | --- | --- | --- | --- | --- |
| Cc1[nH]c(C(=O)Nc2ccc(C(C)O)cc2)cc1C(=O)c1ccccc1 (racemic) [Compound 1d, (±) 4‐Benzoyl‐N‐[4‐(1‐hydroxyethyl)phenyl]‐5‐methyl‐1H‐pyrrole‐2‐carboxamide] | 93.4 ± 0.6 |  |  |  |  |  |
| N.N.[Cl][Pt][Cl] [Cisplatin, reference compound] |  |  |  |  |  | IC50 (HaCaT cells): 20 ± 3 µM; IC50 (HCT-116 cells): 9 ± 3 µM |
| Cc1[nH]c(C(=O)Nc2ccc3ccccc3n2)cc1C(=O)c1ccccc1 [Compound 1b, 4‐benzoyl‐5‐methyl‐N‐(quinolin‐2‐yl)‐1H‐pyrrole‐2‐carboxamide] | 71.8 ± 4.7 | ~55 |  |  |  | Residual activity of mPGES-1, mean ± SD (%) (mPGES-1): 55.6 ± 2.9% |
| Cc1ccc(NC(=O)c2cc(C(=O)c3ccccc3)c(C)[nH]2)cc1C [Compound 1c, 4‐Benzoyl‐N‐(3,4‐dimethylphenyl)‐5‐methyl‐1H‐pyrrole‐2‐carboxamide] | 47.7 ± 2.9 | 65.5 ± 3.7 |  |  |  |  |
| Cc1[nH]c(C(=O)Nc2cc(Cl)cc(Cl)c2)cc1C(=O)c1ccccc1 [Compound 1e, 4‐benzoyl‐N‐(3,5‐dichlorophenyl)‐5‐methyl‐1H‐pyrrole‐2‐carboxamide] | 86.9 ± 4.8 | 73.4 ± 5.2 |  |  |  |  |
| Cc1[nH]c(C(=O)Nc2cc(N)cc(C(F)(F)F)c2)cc1C(=O)c1ccccc1 [Compound 1f, N‐[3‐Amino‐5‐(trifluoromethyl)phenyl]‐4‐benzoyl‐5‐methyl‐1H‐pyrrole‐2‐carboxamide] | 36.1 ± 5.1 | ~50 | 37 ± 3 | 5 ± 0.9 | 25 ± 2 | Residual activity of mPGES-1, mean ± SD (%) (mPGES-1): 47.6 ±4.4% |
| CCc1ccccc1NC(=O)c1cc(C(=O)c2ccc3ccccc3c2)c(C)[nH]1 [Compound 2a, 4‐(2‐Naphthoyl)‐N‐(2‐ethylphenyl)‐5‐methyl‐1H‐pyrrole‐2‐carboxamide] | 74.3 ± 3.6 | 83.4 ± 4 |  |  |  |  |
| Cc1ccc(NC(=O)c2cc(C(=O)c3ccc4ccccc4c3)c(C)[nH]2)cc1O [Compound 2b, 4‐(2‐Naphthoyl)‐N‐(3‐hydroxy‐4‐methylphenyl)‐5‐methyl‐1H‐pyrrole‐2‐carboxamide] | 21.7 ± 4.2 | 17.6 ± 0.3 | 31 ± 4 | 1.5 ± 0.2 | 42 ± 1 | IC50 (mPGES-1): 3.3 ± 0.5 µM |
| COc1ccc(NC(=O)c2cc(C(=O)c3ccc4ccccc4c3)c(C)[nH]2)cc1O [Compound 2c, 4‐(2‐Naphthoyl)‐N‐(3‐hydroxy‐4‐methoxyphenyl)‐5‐methyl‐1H‐pyrrole‐2‐carboxamide] | 47.2 ± 2.5 | 30.4 ± 1.9 | 43 ± 2 | 6.3 ± 1.1 | 44 ± 3 | IC50 (mPGES-1): 4 ± 1.1 µM |
| Cc1[nH]c(C(=O)Nc2ccc(Cl)c(CO)c2)cc1C(=O)c1ccc2ccccc2c1 [Compound 2d, 4‐(2‐Naphthoyl)‐N‐[4‐chloro‐3‐(hydroxymethyl)phenyl]‐5‐methyl‐1H‐pyrrole‐2‐carboxamide] | 41.6 ± 3.1 | 21.5 ± 2.9 | 22 ± 2 | 7.6 ± 1 | 39 ± 2 | IC50 (mPGES-1): 4.5 ± 1.3 µM |
| CCCCCCCCCCCC(=O)c1c(C)c(CCC(=O)O)n(C)c1C [I, 3-(4-dodecanoyl-1,3,5-trimethyl-1H-pyrrol-2-yl)propanoic acid] |  |  |  |  |  | Inhibition of mPGES-1 from A549 cells at 3.3 μM [%] (mPGES-1 from A549 cells): 74±8 (n=5) %; Inhibition of human recombinant mPGES-1 at 1μM [%] [1]: 54±8 (n=7) % |
